The record followed here is US4210663A, “Halogen substituted benzopyran- and benzothiopyran-4-carboxylic acids” (Pfizer Inc., priority 1978, dated 1980).

The target in the test is T1, aldose reductase (Bos taurus, UniProt P16116).
T1 construct: partially purified aldose reductase enzyme obtained from calf lens; from tissue; host or cells: calf lens
Briefly: inhibition of aldose reductase enzyme activity (procedure of U.S. Pat. No. 3,821,383, based on Hayman et al.). It is filed as biochemical. As to conditions: partially purified aldose reductase from calf lens, / = results of duplicate tests; for inhibition at 100 µM: 10^-4 M. The text has this: Pat. No. 3,821,383 and based on the procedure of Hayman et. al., Journal of Biological Chemistry, 240, 877 (1965). The substrate employed was partially purified aldose reductase enzyme obtained from calf lens. The results obtained with each compound at a concentration of 10^-4 M are expressed as percent inhibition of enzyme activity.

By inhibition is commonly meant the percentage by which the read-out fell short of the control. Low values mean a response near the control, high ones a response far below the control. For orientation: % Inhibition means the percentage by which the read-out fell short of the control. Read a high % Inhibition as a strong effect. Consider `O=C(O)C1CCOc2c(Cl)cc(-c3ccccc3)cc21` (stereo not drawn) [Example 2, 6-phenyl-8-chloro-3,4-dihydro-2H-1-benzopyran-4-carboxylic acid], for which the inhibition at 100 µM is 74% and the “% Inhibition at 10^-4 M (aldose reductase enzyme activity)” value is recorded as 67%. For `O=C(O)C1CCSc2cc(Cl)c(Cl)cc21` (stereo not drawn) [Example 4, 6,7-dichloro-3,4-dihydro-2H-1-benzothiopyran-4-carboxylic acid], testing at 100 µM gave an inhibition of 92% and the “% Inhibition at 10^-4 M (aldose reductase enzyme activity)” value is 76%. Turning to `Cc1cc(Cl)cc2c1OCCC2C(=O)O` (stereo not drawn) [Example 6, 6-chloro-8-methyl-3,4-dihydro-2H-1-benzopyran-4-carboxylic acid], the inhibition at 100 µM came out at 87% and the “% Inhibition at 10^-4 M (aldose reductase enzyme activity)” value was 89%. With `O=C(O)C1CCOc2c(Cl)cc(Cl)cc21` (stereo not drawn) [Example 8, 6,8-dichloro-3,4-dihydro-2H-1-benzopyran-4-carboxylic acid], 100 µM produced 82% inhibition and the “% Inhibition at 10^-4 M (aldose reductase enzyme activity)” value stood at 89%. `O=C(O)C1CCOc2ccc(F)cc21` (stereo not drawn) [Example 10, 6-fluoro-3,4-dihydro-2H-1-benzopyran-4-carboxylic acid] returned an inhibition at 100 µM of 71%. In the case of `O=C(O)C1CCOc2ccc(Cl)cc21` (stereo not drawn) [Example 12, 6-chloro-3,4-dihydro-2H-1-benzopyran-4-carboxylic acid], the inhibition at 100 µM stood at 85% and the “% Inhibition at 10^-4 M (aldose reductase enzyme activity)” value is given as 81%. For `O=C(O)C1CCOc2c1cc(Cl)c1ccccc21` (stereo not drawn) [Example 14, 6-chloro-3,4-dihydro-2H-naphtho[1,2-b]pyran-4-carboxylic acid], in that order: 88% and 90%.

With `O=C(O)C1CCSc2ccc(Cl)cc21` (stereo not drawn) [Example 16, 6-chloro-3,4-dihydro-2H-1-benzothiopyran-4-carboxylic acid], the inhibition at 100 µM was 70%. Still for that read-out and setting: with `O=C(O)CC1CCOc2ccc(Cl)cc21` (stereo not drawn) [Example 18, 6-chloro-3,4-dihydro-2H-1-benzopyran-4-acetic acid] the figure was 69%.
